# Data: PubChem BioAssay AID449748 (Broad Institute, 2010)
# Inconclusive results are not listed.
# System: cancer stem cell-like cells viability, luminescence
# Assay: PubChem AID 449748
structure (smiles),measurement,value
O=[N+]([O-])c1ccc(Cl)c([N+](=O)[O-])c1,AC50,4.77 µM
